The results in this text go back to patent US12312599B2, “Methods, compositions, and kits for producing beige adipocytes and treating metabolic disorders” (MaineHealth, priority 2018, dated 2025).

The series is described as follows: Activity of Y-27632 stock solutions. Type of series: physicochemical. As to conditions: water based versus DMSO stock. How it is done: Note: Only use Y-27632 stock solutions that have been resuspended in DMSO. […] Conduct Mesoderm induction of iPSC in a laminar flow cabinet. • 3. Expand cells in NutriStem hPSC XF Medium overnight and change 100% of the medium without Y-27632 every 24 hours in a laminar flow cabinet for cell culture. When changing media, tilt plate up and allow media to pool at the bottom of wells. Aspirate the pooled medium without touching the surface of the plate. Replace with medium warmed to room temperature by pipetting 2 ml down the side of the wells. Cell Passaging • 1. Expand cell colonies until they have reached 70-80% confluence in high-density areas of the wells. High-density accumulation can occur along the edges of the well as well as the middle. Cells permitted to reach high density will lose their potential for differentiation after multiple passages. • 2. Prior to cell passage, warm cell wash buffer and NutriStem hPSC XF Medium to room temperature. Conduct cell passage in a laminar flow cabinet. • 3. Aspirate NutriStem hPSC XF Medium from wells with vacuum aspirator and wash with PBS without calcium or magnesium. Remove PBS and add 1 ml of ReLeSR reagent to side of well. Agitate plate to allow ReLeSR reagent to spread evenly on the surface. • 4. Aspirate ReLeSR reagent with vacuum aspirator after 30 seconds, which will leave behind a thin film of liquid. […]

SMILES strings stand for the structures.

In the case of `C[C@@H](N)[C@H]1CC[C@H](C(=O)Nc2ccncc2)CC1` [Y-27632], the “inhibitor activity of water based stock solutions” value was “lose significant inhibitor activity”.
